# Results as given in PMC6753678, “Fueling Open Innovation for Malaria Transmission-Blocking Drugs: Hundreds of Molecules Targeting Early Parasite Mosquito Stages” (Frontiers in Microbiology, 2019).
# Read-outs that look alike come from different tables or passages of the source.
# Assays:
# HepG2 cells [1] = assay: HepG2 cytotoxicity assay; settings: for IC50: read-out: HepG2 cytotoxicity assay IC50, dose response confirmation
# How it was run: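 Here viability after a 48 h compound incubation (37°C, humidified 5% CO2) is measured by fluorescence and expressed as percent inhibition, with doxorubicin at 50 μM and DMSO as the bounding controls.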
# [2] = test system: P. falciparum late stage (stages IV-V) gametocytes; set-up: method as in Almela et al 2016; settings: ref Almela et al 2016, read-out: Pf GCT ATP IC50, cited from earlier work
# [3] = test system: P. falciparum late stage (stages IV-V) gametocytes; assay: P. falciparum late stage gametocyte ATP depletion assay (Pf GC-ATP); settings: 1: YES; 0: NO; >10-fold selectivity over cytotoxicity
# HepG2 cells [4] = settings: cited from earlier work; for HepG2 cytoxicity (Pf GCT ATP screen) / HepG2 cytoxicity: ref Almela et al 2016; for HepG2 cytoxicity (Pf FGAA screen): ref Miguel-Blanco et al 2017
# [5] = test system: 3D7-strain P. falciparum asexual parasites; assay: P. falciparum asexual growth inhibition assay (Pf GIA); assay type: cell-based, Plasmodium falciparum; settings: dose response confirmation; read-out: Pf asexual growth inhibition assays IC50
# How it was run: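 3D7 parasites at 0.25% parasitemia, 2% hematocrit were exposed to compounds in dose response for 72 h at 37°C under 5% CO2, 5% O2. Viability read as parasite LDH activity (nitro blue tetrazolium, A650) after freeze-thaw; inhibition scaled to chloroquine (50 μM) and DMSO controls, mean of three biological replicates.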
# [6] = test system: P. berghei ookinete development; settings: for % inhibition, Replicate A / % inhibition, Replicate B: primary screen at 1 μM; for Is compound selective in assay? Pb ODA active?: 1: YES, 0: NO
# [7] = test system: P. falciparum female gametocytes; set-up: method as in Miguel-Blanco et al 2017; settings: ref Miguel-Blanco et al 2017, read-out: Pf FGAA IC50, cited from earlier work
# [8] = test system: P. falciparum female gametocytes; assay: P. falciparum female gametogenesis assay (Pf FGAA); settings: 1: YES; 0: NO
# [9] = HepG2 cytotoxicity unified across screens, >25 set to 25.00
# [10] = P. falciparum late stage gametocyte ATP assay, TCAMS screen
# [11] = read-out: Pb ODA IC50, this manuscript
# [12] = read-out: Pb Ookinete development assay IC50, dose response confirmation
# [13] = P. falciparum late stage gametocyte ATP assay
# [14] = HepG2 data listed with Pf GCT ATP screen
# [15] = reported with the Pf GCT ATP screen
# [16] = HepG2 values of the three screens unified
compound,measurement,setting,value
CN(C)CCCn1c(N)c(-c2nc3ccccc3[nH]2)c2nc(C#N)c(C#N)nc21 [TCMDC-123729],Unified cytotox,HepG2 cells [1]; [9],6.93 µM
same,IC50,[2]; [10],200 nM
same,Is compound selective in assay? Pf GC-ATP active?,[3],1 (1: YES)
c1ccc(CSC2=NNC(c3ccccn3)S2)cc1 (stereo not drawn) [TCMDC-123769],IC50,[2]; TCAMS library screen,7980 nM
same,HepG2 cytoxicity (Pf GCT ATP screen),HepG2 cells [4]; HepG2 value reported with Pf GCT ATP screen,>25 µM
Clc1ccc(Nc2nc(-c3ccccn3)cs2)nc1 [TCMDC-123885],IC50,[5],1600 nM
same,"% inhibition, Replicate A",[6],-3.14%
same,"% inhibition, Replicate B",[6],71.58%
same,IC50,[6]; [11],3700 nM
same,IC50,[6]; [12],3700 nM
same,IC50,[2],670 nM
same,HepG2 cytoxicity (Pf GCT ATP screen),HepG2 cells [4]; HepG2,20.8 µM
O=C(Nc1ccc2c(c1)CCCN2S(=O)(=O)c1cccs1)c1cc([N+](=O)[O-])ccc1Cl [TCMDC-125153],IC50,[2]; [13],2660 nM
same,HepG2 cytoxicity,HepG2 cells [4]; [14],>25 µM
Cc1cc(NCCCCCCNc2cc(C)nc3c(C)cccc23)c2cccc(C)c2n1.Cl [TCMDC-125702],IC50,[2]; [13],3320 nM
same,HepG2 cytoxicity,HepG2 cells [4]; [14],>25 µM
Br.Cc1ccnc(Nc2nc(-c3ccccn3)cs2)c1 [TCMDC-125769],IC50,[2]; [13],43.3 nM
Cc1ccc(Nc2nc(-c3ccccn3)cs2)nc1 [TCMDC-125854],Unified cytotox,HepG2 cells [1]; HepG2 cytotoxicity unified across the three screens,33.07 µM
same,IC50,[2]; TCAMS screen comparison,160 nM
same,IC50,[7]; TCAMS screen comparison,27.3 nM
CCN(CC)/C(=N/C(=N)Nc1ccc(Cl)c(Cl)c1)NCCCCCCN/C(=N\C(=N)Nc1ccc(Cl)c(Cl)c1)N(CC)CC [TCMDC-131808],IC50,[2]; [13],3440 nM
same,HepG2 cytoxicity,HepG2 cells [4]; [14],>25 µM
CCC1=C(C[C@H]2NCCc3cc(OC)c(OC)cc32)C[C@H]2c3cc(OC)c(OC)cc3CCN2C1.Cl [TCMDC-131825],IC50,[5],127 nM
same,"% inhibition, Replicate A",[6],90.26%
same,"% inhibition, Replicate B",[6],99.18%
same,IC50,[6]; [11],370 nM
same,IC50,[6]; [12],367 nM
same,IC50,[2],300 nM
same,HepG2 cytoxicity (Pf GCT ATP screen),HepG2 cells [4]; HepG2,>25 µM
Nc1c2ccccc2nc2ccc(-c3ccccc3)cc12 [TCMDC-132030],Unified cytotox,HepG2 cells [1]; [9],3.30 µM
same,IC50,[2]; [10],490 nM
same,Is compound selective in assay? Pf GC-ATP active?,[3],0 (0: NO)
CCc1c(CCNCCCCCCNCCc2ccc(Br)cc2)ccc(OC)c1OC.Cl [TCMDC-132045],Unified cytotox,HepG2 cells [1]; [9],3.20 µM
same,IC50,[2]; [10],220 nM
same,Is compound selective in assay? Pf GC-ATP active?,[3],1 (1: YES)
CCc1c(CCNCCCCCCNCCc2ccc(OC)c(OC)c2C)ccc(OC)c1OC.Cl [TCMDC-132051],Unified cytotox,HepG2 cells [1]; [9],7.75 µM
same,IC50,[2]; [10],770 nM
same,Is compound selective in assay? Pf GC-ATP active?,[3],1 (1: YES)
CCc1c(CCNCCc2cccc(CCNCCc3ccc(OC)c(OC)c3CC)c2)ccc(OC)c1OC.Cl [TCMDC-132056],Unified cytotox,HepG2 cells [1]; [9],4.11 µM
same,IC50,[2]; [10],550 nM
same,Is compound selective in assay? Pf GC-ATP active?,[3],0 (0: NO)
CCc1c(CCNCCCC(C)CCNCCc2ccc(OC)c(OC)c2CC)ccc(OC)c1OC.Cl (stereo not drawn) [TCMDC-132065],Unified cytotox,HepG2 cells [1]; [9],6.00 µM
same,IC50,[2]; [10],450 nM
same,Is compound selective in assay? Pf GC-ATP active?,[3],1 (1: YES)
COc1cccc(CCc2c(CCNCCCCCCNCCc3ccccc3)ccc(OC)c2OC)c1.Cl [TCMDC-132105],Unified cytotox,HepG2 cells [1]; [9],7.70 µM
same,IC50,[2]; [10],180 nM
same,Is compound selective in assay? Pf GC-ATP active?,[3],1 (1: YES)
Cc1cc(-c2cccc(CNC3CCCC3)c2)ccc1S(=O)(=O)NCCN1CCCC1.O=C(O)C(F)(F)F [TCMDC-132279],Unified cytotox,HepG2 cells [1]; [9],7.50 µM
same,IC50,[2]; [10],1240 nM
same,Is compound selective in assay? Pf GC-ATP active?,[3],0 (0: NO)
O=C(O)C(F)(F)F.O=S(=O)(NCCN1CCCC1)c1cccc(-c2ccc(CNCc3ccc(F)cc3)cc2)c1 [TCMDC-132289],Unified cytotox,HepG2 cells [1]; [9],7.40 µM
same,IC50,[2]; [10],2690 nM
same,Is compound selective in assay? Pf GC-ATP active?,[3],0 (0: NO)
COc1ccc(CNCc2ccc(F)cc2)cc1-c1ccc(S(=O)(=O)NCCN2CCCC2)cc1.O=C(O)C(F)(F)F [TCMDC-132294],Unified cytotox,HepG2 cells [1]; [9],6.50 µM
same,IC50,[2]; [10],1210 nM
same,Is compound selective in assay? Pf GC-ATP active?,[3],0 (0: NO)
COc1ccc(CNCc2ccc(F)cc2)cc1-c1ccc(OC)c(S(=O)(=O)NCCN2CCCC2)c1.O=C(O)C(F)(F)F [TCMDC-132295],Unified cytotox,HepG2 cells [1]; [9],11.40 µM
same,IC50,[2]; [10],720 nM
same,Is compound selective in assay? Pf GC-ATP active?,[3],1 (1: YES)
COc1ccc(CNCCc2cccs2)cc1-c1cccc(S(=O)(=O)NCCN2CCCC2)c1.O=C(O)C(F)(F)F [TCMDC-132479],Unified cytotox,HepG2 cells [1]; [9],11.40 µM
same,IC50,[2]; [10],1680 nM
same,Is compound selective in assay? Pf GC-ATP active?,[3],0 (0: NO)
O=C(Nc1ccc(N2CCNCC2)cc1)c1ccn2ncc(-c3cccc(Cl)c3)c2n1 [TCMDC-132663],Unified cytotox,HepG2 cells [1]; [9],22.22 µM
same,IC50,[2]; [10],3500 nM
same,Is compound selective in assay? Pf GC-ATP active?,[3],0 (0: NO)
COc1ccc(-c2cc(-c3ccc(S(C)(=O)=O)cc3)cnc2N)cn1 [TCMDC-133351],IC50,[2]; [10],1180 nM
Nc1ncc(-c2ccc3nccc(-c4ccncc4)c3c2)cc1S(=O)(=O)N1CCOCC1 [TCMDC-134180],Unified cytotox,HepG2 cells [1]; [9],25.00 µM
same,IC50,[2]; [10],6900 nM
same,HepG2 cytoxicity,HepG2 cells [4]; [15],>25 µM
COc1ccc2nc(-c3cccc(C)n3)nc(Nc3ccncc3)c2c1 [TCMDC-134670],Unified cytotox,HepG2 cells [1]; [9],25.00 µM
same,IC50,[2]; [10],2510 nM
same,HepG2 cytoxicity,HepG2 cells [4]; [15],>25 µM
Cc1cccc(-c2nc(Nc3ccncc3)c3cc(N(C)C)ccc3n2)n1 [TCMDC-135308],Unified cytotox,HepG2 cells [1]; [9],25.00 µM
same,IC50,[2]; [10],2660 nM
same,HepG2 cytoxicity,HepG2 cells [4]; [15],>25 µM
Cl.NCC1(c2nc(-c3ccc(Cl)c(O)c3)c(-c3ccncc3)[nH]2)CCCCC1 [TCMDC-141154],IC50,[5],1480 nM
same,"HepG2 cytoxicity (Pb ODA, this manuscript)",HepG2 cells [1],46.77 µM
same,Unified cytotox,HepG2 cells [1]; [16],29.34 µM
same,IC50,HepG2 cells [1],46800 nM
same,Is compound selective in assay? Pb ODA active?,[6],1 (1: YES)
same,"% inhibition, Replicate A",[6],57.75%
same,"% inhibition, Replicate B",[6],53.53%
same,IC50,[6]; [11],1010 nM
same,IC50,[6]; [12],1000 nM
same,IC50,[7],210 nM
same,HepG2 cytoxicity (Pf FGAA screen),HepG2 cells [4]; HepG2,11.90 µM
same,Is compound selective in assay? Pf FGAA active?,[8],1 (1: YES)
CC(C)(CN)c1cc(-c2ccc(Cl)c(O)c2)c(-c2ccncc2)o1.Cl [TCMDC-141334],IC50,[5],1620 nM
same,"HepG2 cytoxicity (Pb ODA, this manuscript)",HepG2 cells [1],20.65 µM
same,Unified cytotox,HepG2 cells [1]; [16],15.32 µM
same,IC50,HepG2 cells [1],20600 nM
same,Is compound selective in assay? Pb ODA active?,[6],1 (1: YES)
same,"% inhibition, Replicate A",[6],59.21%
same,"% inhibition, Replicate B",[6],49.94%
same,IC50,[6]; [11],1390 nM
same,IC50,[6]; [12],1390 nM
same,IC50,[7],420 nM
same,HepG2 cytoxicity (Pf FGAA screen),HepG2 cells [4]; HepG2,9.98 µM
same,Is compound selective in assay? Pf FGAA active?,[8],1 (1: YES)
O=C(Nc1ccc(Cl)cc1)c1cc(Cl)cc2nc(C(F)(F)F)[nH]c12 [TCMDC-141586],IC50,[5],1100 nM
same,"HepG2 cytoxicity (Pb ODA, this manuscript)",HepG2 cells [1],2.04 µM
same,Unified cytotox,HepG2 cells [1]; [16],2.43 µM
same,IC50,HepG2 cells [1],2040 nM
same,Is compound selective in assay? Pb ODA active?,[6],0 (0: NO)
same,"% inhibition, Replicate A",[6],65.74%
same,"% inhibition, Replicate B",[6],42.68%
same,IC50,[6]; [11],4370 nM
same,IC50,[6]; [12],4360 nM
same,IC50,[7],1700 nM
same,HepG2 cytoxicity (Pf FGAA screen),HepG2 cells [4]; HepG2,2.82 µM
same,Is compound selective in assay? Pf FGAA active?,[8],0 (0: NO)
Cc1cc(F)ccc1-c1nc(NCCCNCCc2ccccc2)nc2c1ccc(=O)n2-c1c(F)cccc1F.O=C(O)C(F)(F)F [TCMDC-141804],IC50,[5],21 nM
same,"HepG2 cytoxicity (Pb ODA, this manuscript)",HepG2 cells [1],11.48 µM
same,Unified cytotox,HepG2 cells [1]; [16],12.04 µM
same,IC50,HepG2 cells [1],11500 nM
same,Is compound selective in assay? Pb ODA active?,[6],1 (1: YES)
same,"% inhibition, Replicate A",[6],63.85%
same,"% inhibition, Replicate B",[6],85.47%
same,IC50,[6]; [11],720 nM
same,IC50,[6]; [12],725 nM
same,IC50,[7],3610 nM
same,HepG2 cytoxicity (Pf FGAA screen),HepG2 cells [4]; HepG2,12.59 µM
same,Is compound selective in assay? Pf FGAA active?,[8],0 (0: NO)
